In publication PMC6479402, “Anti-Herpetic, Anti-Dengue and Antineoplastic Activities of Simple and Heterocycle-Fused Derivatives of Terpenyl-1,4-Naphthoquinone and 1,4-Anthraquinone” (Molecules, 2019):
Values joined by “and” are separate entries in the source; they are usually repeats but may differ in a detail not shown here. Equal entries are not always repeated. Where two headings read alike, the source gives them in different places.

Assays:
[1] = system: HeLa; experiment: MTT cytotoxicity assay; format: cell-based; details: Homo sapiens, HeLa ATCC CRL-1958, 48 h, read-out: IC50 ± SD, HeLa
Procedure: (§1) Then, each diluted molecule was added to the cells and incubated for further 48 h at 37 °C, 5% CO2. […] The DMSO was then added to dissolve the formed formazan crystals and absorbance was determined spectrophotometrically at 570 nm. […] IC50 values were expressed as the mean ± standard deviation (M ± SD) of two independent experiments done in quadruplicate.

[2] = system: Jurkat; experiment: MTT cytotoxicity assay; format: cell-based; details: Homo sapiens, Jurkat ATCC TIB-152, 48 h, read-out: IC50 ± SD, Jurkat
Procedure: as §1

[3] = system: Vero; experiment: MTT cytotoxicity assay, non-tumor cells; format: cell-based, Cercopithecus aethiops; details: for IC50: Chlorocebus sabaeus
Procedure: The in vitro cytotoxicity evaluation of quinones was performed using the 3-(4,5 dimethylthiazol-2-yl)-2,5-diphenyltetrazolium bromide (MTT, Sigma, Cream Ridge, NJ, USA) assay as described by Betancur-Galvis et al. 2002 [22]. Briefly, Vero and HeLa cell lines were seeded at 2.0 × 10^3 cells per well of 96-well plates in DMEM supplemented with 10% of inactivated FBS, and were incubated for 24 h at 37 °C, 5% CO2. Then, each diluted molecule was added to the cells and incubated for further 48 h at 37 °C, 5% CO2. Jurkat cell line at 3 × 10^3 cells per well in a 96-well round-bottomed plate and diluted substances in RPMI-1640 medium (Sigma) supplemented with 10% FBS were plated simultaneously. After 48 h of treatment at 37 °C, 5% CO2, the media was carefully removed and 28 µL of MTT solution (4 mg/mL) was added to each well, and the plates were incubated for 2 h at 37 °C, 5% CO2. The DMSO was then added to dissolve the formed formazan crystals and absorbance was determined spectrophotometrically at 570 nm.
The minimal dilution of compound that caused 50% inhibition of the cells (IC50) was calculated by linear regression analysis of the dose-response curves generated from the absorbance data with the statistical GraphPad Prisma 5.0. IC50 values were expressed as the mean ± standard deviation (M ± SD) of two independent experiments done in quadruplicate.

[4] = system: HHV-2; experiment: Plaque reduction assay, simultaneous and post-infection treatment, Vero cells; format: cell-based, Human Herpesvirus 2; details: for Antiviral activity in simultaneous treatment, HHV-2: PFU, NQ 4 0.4–3.1 µg/mL, DS 5 µg/mL
Procedure: (§2) To define the stage of the viral replicative cycle where NQ 4 exerts its action, simultaneous and post-infection treatments against HHV-1 and HHV-2 were performed. […] First, we determined the inhibitory concentration 50% (IC50) for the compound and drug positive controls on infected cells and their effects on non-tumoral Vero cells, to define the concentration of evaluation and to calculate the antiviral selectivity index (SI). Then, the concentration of NQ 4 that reduced the number of viral plaques by 50% (EC50) was determined from the dose-response curves.
(§3) The potential antiviral mechanism of NQ 4 was evaluated by the plaque reduction assay as previously described by us. Vero cell monolayers grown in 24-well plates were infected with 100 PFU/well of each virus. For simultaneous treatment, the compound and the virus were added simultaneously to the cell monolayers and incubated for 1 h at 37 °C (5% CO2). Then, cells were washed with phosphate buffered saline (PBS, pH = 7.0) and CMC at 1% and 0.75% was added for HHV-1 and HHV-2, respectively. In post-infection treatment, virus was added to cell monolayer and incubated for 1 h at 37 °C (5% CO2). After incubation, washing was performed with PBS and molecule previously prepared in CMC 1% and 0.75% for HHV-1 and HHV-2 respectively, was added. In both treatments, NQ 4 was prepared at concentrations from 0.4 µg/mL to 3.1 µg/mL and the cell monolayers allowed to incubate for 72 h. Subsequently, cells were fixed and stained with a solution of 3.5% formaldehyde with 0.2% crystal violet, and the viral plaques were counted. Dextran sulfate (DS) was included as positive control in simultaneous assay and acyclovir (A) was the positive control in after infection treatment.

[5] = system: HHV-1; experiment: HHV-1 viral attachment assay on Vero cells (plaque reduction); format: cell-based, Human Herpesvirus 1; details: Human alphaherpesvirus 1, Vero
Procedure: (§4) The effect of NQ 4 in the initial phases of the HHV-1 viral replication was done as previously described by Cardozo et al., 2011 [53]. In the attachment assay, pre-chilled (1 h at 4 °C) Vero cell monolayers were exposed to viruses (100 PFU/well) in presence or absence of the compound and were incubated for 2 h at 4 °C. After incubation, the substance and unbounded viruses were removed with cold PBS; cells were overlaid with CMC 1% and incubated for 72 h at 37 °C (5% CO2). In the entry assay, pre-chilled cells were infected with viruses (100 PFU/well) and incubated for 2 h at 4 °C. After this time, the unbound viruses were removed with cold PBS; cells were treated with different concentrations of pre-warmed compound, and then incubated for 1 h at 37 °C. Unabsorbed viruses were inactivated using citrate buffer (pH = 3.0) and then cells were washed with PBS, overlaid with CMC 1%, and incubated for 72 h at 37 °C (5% CO2). In both assays, further procedures were the same mentioned previously for the plaque reduction assay and dextran sulfate (DS) was included as positive control.
(§5) In these tests, the evaluated NQ 4 concentration range was from 0.1 to 0.8 µg/mL and the effective concentration fifty (EC50), the concentration that reduces the 50% of plaque forming units, was determined from dose-effect curves by linear regression methods for each compound. […]

[6] = system: Human Herpesvirus type 2 (HHV-2); experiment: End-point titration technique (EPTT), anti-herpetic screening on infected Vero cells; format: cell-based, Human Herpesvirus 2; details: for Rf (reduction factor of the viral titer), HHV-2: 10 TCID50, 48 h
Procedure: (§6) The in vitro antiviral evaluation of the 27 substances against Human Herpesvirus type 1 (HHV-1) and 2 (HHV-2) was made on infected Vero cells, using the end-point titration technique (EPTT).
(§7) The antiviral activity of molecules against 1 and 10 Cell Culture Infectious Dose 50% (10TCID50) of HHV-1 and HHV-2, respectively, was determined using end-point titration technique (EPTT). Vero cells grown in 96-well plates at a density of 2.0 × 10^4 cells/well were incubated at 37 °C in 5% CO2 atmosphere until constitute 80% of cell monolayer. Then, viral suspensions of HHV-1 or HHV-2 with concentrations of 6.25 µg/mL to 50 µg/mL of compounds were performed in DMEM supplemented with 2% FBS containing 1% and 0.5% carboxymethylcellulose (CMC) for HHV-1 and HHV-2, respectively. Mixture was incubated during 15 minutes at room temperature and was added to the cell monolayer. After 48 h of incubation at 37 °C (5% CO2), the cytopathic effect was examined, the microplates were fixed with 3.5% formaldehyde and stained with 0.2% crystal violet. Two independent experiments by quadruplicate for each viral serotype and each were carried out. Positive controls, such as dextran sulfate (DS) and acyclovir (A) for early stages and late stages of infection, respectively, were included.

[7] = system: HHV-1; experiment: HHV-1 viral entry assay on Vero cells (plaque reduction); format: cell-based, Human Herpesvirus 1; details: 0.1–0.8 µg/mL
Procedure: as §4, §5

[8] = system: HHV-1; experiment: Plaque reduction assay, simultaneous and post-infection treatment, Vero cells; format: cell-based, Human Herpesvirus 1; details: for Antiviral activity in simultaneous treatment, HHV-1: PFU, NQ 4 0.4–3.1 µg/mL, DS 5 µg/mL
Procedure: as §2, §3

[9] = system: Human Herpesvirus type 1 (HHV-1); experiment: End-point titration technique (EPTT), anti-herpetic screening on infected Vero cells; format: cell-based; details: for Rf (reduction factor of the viral titer), HHV-1: 1 TCID50, 48 h
Procedure: as §6, §7

[10] = system: DENV-2; experiment: Plaque reduction assay, simultaneous and post-infection treatment, BHK-21 cells; format: cell-based, Dengue virus type 2; details: for Antiviral activity in post-infection treatment, DENV-2: post-infective stages, ribavirin 3.7 µg/mL
Procedure: as §2
Against DENV, the effect of NQ 4 either simultaneously or post-infection was also evaluated by the plaque reduction assay as previously described. Concentrations employed for this assay were from 0.4 µg/mL to 1.6 µg/mL. In this test, BHK-21 cell monolayers grown in 24-well plates were infected with 100 PFU/well of DENV-2 and treatments were performed in the same way to describe for Herpesviruses. Moreover, the monolayers were incubated for 6 days, fixed and stained with a solution of 3.5% formaldehyde with 0.2% crystal violet, and the viral plaques were counted. Heparin (H) was included as a positive control in the simultaneous assay, and ribavirin (R) was the positive control in after infection treatment.

[11] = Vero ATCC CCL-81, 48 h, MTT, read-out: IC50 ± SD, Vero
[12] = post-infective stages, acyclovir 1.5 µg/mL
[13] = non-tumoral Vero cells, data not shown, read-out: IC50 on Vero cells
[14] = non-tumoral Vero cells, data not shown

## CCn1c(C)c(C(=O)OC)c2c1C(=O)c1cc3c(cc1C2=O)C(C)(C)CCC3 [HetQ 22]
[1]
  IC50: 73 ± 1.6 µM
[2]
  IC50: 71.7 ± 1.8 µM
[3]; [11]
  IC50: 183 ± 15.9 µM

## CC(C)=CCCc1ccc2c(c1)C(=O)C=CC2=O [NQ 1]
[1]
  IC50: > 104 µM
[2]
  IC50: > 104 µM

## CC(C)CCCc1ccc2c(c1)C(=O)C(Cl)=C(Cl)C2=O [NQ 4]
[4]; Human alphaherpesvirus 2, simultaneous treatment, read-out: EC50, anti-herpetic activity on pre-infective stages, HHV-2
  EC50: < 0.4 µg/mL and < 1.28 µM
[4]; [12]
  Antiviral activity in post-infection treatment, HHV-2: no activity
[4]
  Antiviral activity in simultaneous treatment, HHV-2: anti-herpetic activity in all concentrations tested
[5]
  EC50: 0.38 µM
[5]; 2 h at 4 °C, 0.1–0.8 µg/mL
  EC50: 0.12 µg/mL
[6]
  Rf (reduction factor of the viral titer), HHV-2: 1 × 10^2
[6]; listed as 4
  Rf (reduction factor of the viral titer), HHV-2: 10^2
[6]; Human alphaherpesvirus 2, 10 TCID50, 48 h, tested 6.25-50 µg/mL, read-out: 10 TCID50: non-toxic concentration that showed viral reduction factor, HHV-2
  minimal effective concentration: 12.5 µg/mL
[1]
  IC50: 46.6 ± 3.3 µM
[2]
  IC50: 36.3 ± 2 µM
[7]
  Effect on HHV-1 viral entry: not significant
[8]; Human alphaherpesvirus 1, simultaneous treatment, read-out: EC50, anti-herpetic activity on pre-infective stages, HHV-1
  EC50: < 0.4 µg/mL and < 1.28 µM
[8]; [12]
  Antiviral activity in post-infection treatment, HHV-1: no activity
[8]
  Antiviral activity in simultaneous treatment, HHV-1: anti-herpetic activity in all concentrations tested
[9]
  Rf (reduction factor of the viral titer), HHV-1: 1 × 10^2
[9]; listed as 4
  Rf (reduction factor of the viral titer), HHV-1: 10^2
[9]; Human alphaherpesvirus 1, 1 TCID50, 48 h, tested 6.25-50 µg/mL, read-out: 1 TCID50: non-toxic concentration that showed viral reduction factor, HHV-1
  minimal effective concentration: 6.25 µg/mL
[3]; [11]
  IC50: ≥ 643 µM
[3]; [13]
  IC50: > 200 µg/mL
[10]
  Antiviral activity in post-infection treatment, DENV-2: no activity
[10]; pre-infective stages
  Concentration showing antiviral activity against DENV-2: 5.1 µM
[10]; simultaneous treatment (pre-infective stages), tested 0.4–1.6 µg/mL
  Concentration showing significant antiviral activity against DENV-2: 1.6 µg/mL

## CC(C)CCCc1ccc2c(c1)C(=O)C(Br)=C(Br)C2=O [NQ 5]
[1]
  IC50: 19.7 ± 0.3 µM
[2]
  IC50: 23.5 ± 1.7 µM
[3]; [11]
  IC50: 15.7 ± 2.7 µM

## NC(=O)c1ncn([C@@H]2O[C@H](CO)[C@@H](O)[C@H]2O)n1 [ribavirin, reference compound]
[3]; [13]
  IC50: > 400 µg/mL
[10]
  Antiviral activity in post-infection treatment, DENV-2: active

## Dextran sulfate [DS, reference compound]
[4]
  Antiviral activity in simultaneous treatment, HHV-2: active
[8]
  Antiviral activity in simultaneous treatment, HHV-1: active
[9]
  Rf (reduction factor of the viral titer), HHV-1: 10^2
[9]; 48 h, tested 6.25-50 µg/mL
  1 TCID50: non-toxic concentration that showed viral reduction factor, HHV-1: 0.5 µg/mL
[3]; [14]
  IC50 on Vero cells: > 400 µg/mL

## heparin [reference compound]
[3]; [14]
  IC50 on Vero cells: > 400 µg/mL
